Assay results reported in ChEMBL document CHEMBL5584321, “Chemoenzymatic Synthesis of DNP-Functionalized FGFR1-Binding Peptides as Novel Peptidomimetic Immunotherapeutics for Treating Lung Cancer” (J Med Chem, 2024).
pKd: −log10 of the molar value. Active and inactive are the calls of the source. No cut-off for these calls is given here. Where a SMILES comes first, the peptide text is derived from it. The star is where a group is joined. X1 = O=[N+]([O-])c1ccc(OCCOCCOCCOCCOCCOCCN*)c([N+](=O)[O-])c1; FITC = O=C1OC2(c3ccc(O)cc3Oc3cc(O)ccc32)c2ccc(NC(=S)*)cc21; X2 = O=[N+]([O-])c1ccc(OCCOCCOCCN*)c([N+](=O)[O-])c1; X3 = O=[N+]([O-])c1ccc(OCCN*)c([N+](=O)[O-])c1; Ahx = NCCCCCC(=O)O

Assays:
[1] = tested on: L6; assay: Binding affinity to human full-length wild type FGFR1c stably expressed in rat L6 cells assessed as fluorescence intensity at 10 uM by antibody recruiting based flow cytometry; assay type: cell-based
[2] = tested on: NCI-H1581; assay: Binding affinity to FGFR1c in human NCI-H1581 cells assessed as fluorescence intensity at 10 uM by antibody recruiting based flow cytometry; assay type: cell-based
[3] = tested on: L6; assay: Induction of apoptosis in FGF2-induced rat L6 cells stably expressing human full-length FGFR1c assessed as upregulation of cleaved caspase-3 expression at 50 uM incubated for 24 hrs by Western blotting analysis; assay type: functional, cell-based
[4] = tested on: L6; assay: Binding affinity to human full-length wild type FGFR1c stably expressed in rat L6 cells assessed as fold change in fluorescence intensity at 10 uM by antibody recruiting based flow cytometry relative to Pep1; assay type: cell-based
[5] = tested on: L6; assay: Induction of apoptosis in FGF2-induced rat L6 cells stably expressing human full-length FGFR1c assessed as upregulation of cleaved PARP expression at 50 uM incubated for 24 hrs by Western blotting analysis; assay type: functional, cell-based
[6] = tested on: L6; assay: Antiproliferative activity against FGF2-induced rat L6 cells stably expressing human full-length FGFR1c assessed as inhibition of cell growth at 100 uM incubated for 36 hrs by CCK-8 assay relative to control; assay type: functional
[7] = tested on: NCI-H1581; assay: Induction of cell lysis in human NCI-H1581 cells at 1 uM incubated for 1 hr by complement dependent cytotoxicity based CCK-8 assay relative to control; assay type: functional
[8] = tested on: NCI-H1581; assay: Binding affinity to FGFR1c in human NCI-H1581 cells assessed as fold change in fluorescence intensity at 10 uM by antibody recruiting based flow cytometry relative to Pep1; assay type: cell-based
[9] = tested on: L6; assay: Binding affinity to human full-length wild type FGFR1c stably expressed in rat L6 cells assessed as increase in fluorescence signal by antibody recruiting based flow cytometry; assay type: cell-based
[10] = tested on: NCI-H1581; assay: Binding affinity to FGFR1c in human NCI-H1581 cells assessed as increase in green fluorescence signal incubated for 1 hr by Alexa-488 staining based confocal fluorescence microscopic analysis; assay type: cell-based
[11] = tested on: L6; assay: Binding affinity to human full-length wild type FGFR1c stably expressed in rat L6 cells assessed as increase in green fluorescence signal incubated for 1 hr by Alexa-488 staining based confocal fluorescence microscopic analysis; assay type: cell-based
[12] = tested on: NCI-H1581; assay: Binding affinity to FGFR1c in human NCI-H1581 cells assessed as increase in fluorescence signal by antibody recruiting based flow cytometry; assay type: cell-based
[13] = tested on: L6; assay: Induction of cell lysis in rat L6 cells at 1 uM incubated for 1 hr by complement dependent cytotoxicity based CCK-8 assay relative to control; assay type: functional
[14] = Binding affinity to CM5 sensor chip immobilized human full-length wild type FGFR1c assessed as dissociation constant by SPR analysis
[15] = tested on: L6; assay: Binding affinity to FGFR1c in rat L6 cells assessed as increase in green fluorescence signal incubated for 1 hr by Alexa-488 staining based confocal fluorescence microscopic analysis; assay type: cell-based
[16] = tested on: L6; assay: Induction of apoptosis in FGF2-induced rat L6 cells stably expressing human full-length FGFR1c assessed as downregulation of BCL-2 expression at 50 uM incubated for 24 hrs by Western blotting analysis; assay type: functional, cell-based
[17] = tested on: L6; assay: Antiproliferative activity against FGF2-induced rat L6 cells stably expressing human full-length FGFR1c assessed as inhibition of cell growth incubated for 36 hrs by CCK-8 assay; assay type: functional, cell-based
[18] = tested on: L6; assay: Induction of cell lysis in rat L6 cells stably expressing human full-length FGFR1c at 1 uM incubated for 1 hr by complement dependent cytotoxicity based CCK-8 assay relative to control; assay type: functional
[19] = tested on: L6; assay: Induction of apoptosis in FGF2-induced rat L6 cells stably expressing human full-length FGFR1c assessed as upregulation of cleaved PARP expression incubated for 24 hrs by Western blotting analysis; assay type: functional, cell-based
[20] = tested on: NCI-H1581; assay: Antitumor activity against human NCI-H1581 cells xenografted BALB/c mouse model assessed as inhibition of tumor growth at 20 mg/kg,SC administrated once daily for 12 days relative to control; assay type: functional; conditions: NCI-H1581, 288 h, time 12 day
[21] = AUC in immunized Sprague-Dawley rat at 1.5 mg/kg,SC administration measured upto 24 hrs by fluorescence based microplate reader assay; assay type: ADME, organism-based; conditions: in vivo
[22] = tested on: L6; assay: Binding affinity to human full-length wild type FGFR1c stably expressed in rat L6 cells assessed as increase in green fluorescence signal at 2 uM by DAPI staining based confocal […] microscopic analysis; assay type: cell-based
[23] = Half life in immunized Sprague-Dawley rat at 1.5 mg/kg,SC administration measured upto 24 hrs by fluorescence based microplate reader assay; assay type: ADME, organism-based; conditions: in vivo
[24] = Tmax in immunized Sprague-Dawley rat at 1.5 mg/kg,SC administration measured upto 24 hrs by fluorescence based microplate reader assay; assay type: ADME, organism-based; conditions: in vivo
[25] = tested on: L6; assay: Binding affinity to FGFR1c in rat L6 cells assessed as increase in green fluorescence signal at 2 uM by DAPI staining based confocal […] microscopic analysis; assay type: cell-based
[26] = tested on: L6; assay: Induction of apoptosis in FGF2-induced rat L6 cells stably expressing human full-length FGFR1c assessed as upregulation of cleaved caspase-3 expression incubated for 24 hrs by Western blotting analysis; assay type: functional, cell-based
[27] = Cmax in immunized Sprague-Dawley rat at 1.5 mg/kg,SC administration measured upto 24 hrs by fluorescence based microplate reader assay; assay type: ADME, organism-based; conditions: in vivo

## CC(C)C[C@H](NC(=O)[C@H](C)NC(=O)[C@@H](NC(=O)[C@H](Cc1ccc(O)cc1)NC(=O)[C@H](Cc1c[nH]c2ccccc12)NC(=O)[C@H](CO)NC(=O)[C@H](CO)NC(=O)[C@H](Cc1ccc(O)cc1)NC(=O)[C@H](CCCCN)NC(=O)[C@H](CCCNC(=N)N)NC(=O)[C@H](CO)NC(=O)[C@H](CCCNC(=N)N)NC(=O)[C@@H](N)Cc1ccc(O)cc1)C(C)C)C(=O)N[C@@H](CCCCN)C(=O)N[C@@H](CCCNC(=N)N)C(=O)N[C@@H](CC(C)C)C(=O)N1CCC[C@H]1C(=O)N[C@@H](CCC(=O)O)C(=O)N[C@H](C(=O)NCC(=O)NCC(=O)NCC(=O)NCCOCCOCCOc1ccc([N+](=O)[O-])cc1[N+](=O)[O-])[C@@H](C)O (H-YRSRKYSSWYVALKRLPETGGG-X2)
[1]
  Flu intensity: 0.3 10^4No_unit
[2]
  Flu intensity: 0.5 10^3No_unit
[3]
  Activity: Active
[4]
  fold change (FC): 33.4
[5]
  Activity: Active
[6]
  inhibition at 100 µM: 100%
[7]
  Activity: 31.7%
[8]
  fold change (FC): 3.6
[9]
  Activity: Dose-Dependent Effect
[10]
  Activity: Active
[11]
  Activity: Active
[12]
  Activity: Dose-Dependent Effect
[13]
  Activity: inactive
[14]
  pKd: 5.27
[15]
  Activity: inactive
[16]
  Activity: Active
[17]
  Activity: Dose-Dependent Effect
[18]
  Activity: 25.9%

## CC(C)C[C@H](NC(=O)[C@H](CO)NC(=O)[C@H](C)NC(=O)[C@H](Cc1c[nH]c2ccccc12)NC(=O)[C@H](CCCCN)NC(=O)[C@H](CCCCN)NC(=O)[C@H](CCCNC(=N)N)NC(=O)[C@@H](NC(=O)[C@H](CO)NC(=O)[C@H](CCCNC(=N)N)NC(=O)[C@@H](N)CCCNC(=N)N)C(C)C)C(=O)N[C@@H](Cc1ccc(O)cc1)C(=O)N[C@@H](Cc1ccc(O)cc1)C(=O)N[C@@H](CO)C(=O)N[C@@H](Cc1ccc(O)cc1)C(=O)N[C@@H](CC(C)C)C(=O)N1CCC[C@H]1C(=O)N[C@@H](CCC(=O)O)C(=O)N[C@H](C(=O)NCC(=O)NCC(=O)NCC(=O)NCCOCCOCCOCCOCCOCCOc1ccc([N+](=O)[O-])cc1[N+](=O)[O-])[C@@H](C)O (H-RRSVRKKWASLYYSYLPETGGG-X1)
[11]
  Activity: inactive

## H-YRSRKYSSWYVALKRLPET-NH2
[19]
  Activity: Dose-Dependent Effect
[20]
  inhibition in vivo at 20 mg/kg: 44.2%
[21]
  AUC at 24 h: 711 ng·h/mL
[22]
  Activity: Active
[6]
  inhibition at 100 µM: 100%
[23]
  half-life: 2.12 h
[24]
  Tmax: 0.58 h
[14]
  pKd: 5.80
[25]
  Activity: inactive
[17]
  Activity: Dose-Dependent Effect
[26]
  Activity: Dose-Dependent Effect
[27]
  Cmax: 205 ng/mL

## CC(C)C[C@H](NC(=O)[C@H](CO)NC(=O)[C@H](C)NC(=O)[C@H](Cc1c[nH]c2ccccc12)NC(=O)[C@H](CCCCN)NC(=O)[C@H](CCCCN)NC(=O)[C@H](CCCNC(=N)N)NC(=O)[C@@H](NC(=O)[C@H](CO)NC(=O)[C@H](CCCNC(=N)N)NC(=O)[C@H](CCCNC(=N)N)NC(=O)CCCCCNC(=S)Nc1ccc2c(c1)C(=O)OC21c2ccc(O)cc2Oc2cc(O)ccc21)C(C)C)C(=O)N[C@@H](Cc1ccc(O)cc1)C(=O)N[C@@H](Cc1ccc(O)cc1)C(=O)N[C@@H](CO)C(=O)N[C@@H](Cc1ccc(O)cc1)C(N)=O ({FITC-Ahx}-RRSVRKKWASLYYSY-NH2)
[22]
  Activity: inactive

## CC(C)C[C@H](NC(=O)[C@H](C)NC(=O)[C@@H](NC(=O)[C@H](Cc1ccc(O)cc1)NC(=O)[C@H](Cc1c[nH]c2ccccc12)NC(=O)[C@H](CO)NC(=O)[C@H](CO)NC(=O)[C@H](Cc1ccc(O)cc1)NC(=O)[C@H](CCCCN)NC(=O)[C@H](CCCNC(=N)N)NC(=O)[C@H](CO)NC(=O)[C@H](CCCNC(=N)N)NC(=O)[C@@H](N)Cc1ccc(O)cc1)C(C)C)C(=O)N[C@@H](CCCCN)C(=O)N[C@@H](CCCNC(=N)N)C(=O)N[C@@H](CC(C)C)C(=O)N1CCC[C@H]1C(=O)N[C@@H](CCC(=O)O)C(=O)N[C@H](C(=O)NCC(=O)NCC(=O)NCC(=O)NCCOc1ccc([N+](=O)[O-])cc1[N+](=O)[O-])[C@@H](C)O (H-YRSRKYSSWYVALKRLPETGGG-X3)
[1]
  Flu intensity: 1.6 10^4No_unit
[2]
  Flu intensity: 3.5 10^3No_unit
[3]
  Activity: Active
[4]
  fold change (FC): 180
[5]
  Activity: Active
[6]
  inhibition at 100 µM: 100%
[7]
  Activity: 35.8%
[8]
  fold change (FC): 22.4
[9]
  Activity: Dose-Dependent Effect
[10]
  Activity: Active
[11]
  Activity: Active
[12]
  Activity: Dose-Dependent Effect
[13]
  Activity: inactive
[14]
  pKd: 5.23
[15]
  Activity: inactive
[16]
  Activity: Active
[17]
  Activity: Dose-Dependent Effect
[18]
  Activity: 29.3%
